“And” between values parts separate entries of the source, which are not always exact repeats. Identical values can stand only once.
How the values were obtained:
Format in all cases: in vivo, Sprague-Dawley rats
[1] = test system: SNL operated SD rats; assay: Data mining (contrastive PCA) of multivariate kinematic gait data: SNL model score and sedation score; details: 50 mg/kg
Procedure: In this Example, data mining was performed to extend the multivariate kinematic data analysis and capture (a) Parameters indicative of analgesia vs. sedation phenotypes (analgesic or sedation ‘fingerprint’) (b) Quantitative measurement of parameters attributed to the temporal aspects of motion to evaluate temporal aspects of motion, such as positions, angles, velocities, and accelerations of body segments and joints during motion. Briefly, Contrastive Principal Component Analysis (cPCA) was utilized to identify different combinations of original variables which were linked to model effect, learning effect, and sedative effects. An orthogonalization procedure was used to make the obtained effects independent. cPC scores corresponding to identified cPCs were computed. In order to evaluate the analgesic and sedative effects of CBD:CBC:THC 5:5:5 mg/kg group, separate comparisons were performed with vehicle and pregabalin as controls, CBD+THC 10:10 mg/kg as positive control for sedation and CBC 10 mg/kg as negative control for sedation. The results of these comparisons were obtained by using all the previously identified components: model effect, learning effect and model orthogonal to learning, sedation orthogonal to model, and finally, the sedation orthogonal to both model and learning. […]

[2] = test system: SNL operated SD rats; assay: Fine motor kinematic gait analysis (MotoRater) in SNL rats; details: within group, D7 to 24 h PD
Procedure: Fine Motor Kinematic Gait Analysis. The rats were subjected to gait analysis at the baseline and on study days 8, 9, 11, 14 and 17, at a minimum of 30 min after the evF test. The assay were carried out by MotoRater (TSE Systems, Homburg, Germany), with the walking mode. Prior to commencing the test, the essential body points (e.g. joints, limbs, nose, tail) were marked for tracking. The information of the gait performance was captured using a high speed camera (300 frames/second) from below and both sides. Next, the captured videos were converted to SimiMotion™ software. The raw data were obtained by tracking the marked points of the body from the videos recorded from all 3 dimensions. […]
Different gait patterns and movements were analyzed using a custom-made automated analysis system. […]
All Motorater data were analyzed for the distinct parameters, as well as for all combined parameters, using principal component analysis (PCA). […]
Comprehensive kinematic analysis was performed by high sensitivity MotoRater that allows detection of any subtle to severe gait changes in SNL model. […] The fine motor capabilities and the gait of the animals were evaluated at the baseline and four times after the SNL surgery, 2 h, 5 h, 9 h and 24 hours post-dosing using the kinematic movement analysis of altogether 97 separate parameters that were recorded.

[3] = test system: SNL operated SD rats; assay: Tactile allodynia test, electronic von Frey (evF), paw withdrawal threshold in spinal nerve ligation (SNL) rats
Procedure: Spinal Nerve Ligation (SNL) Surgery. The animals were enrolled to SNL surgery in daily cohorts of n=6. The rats first received an intraperitoneal dose of 0.03 mg/kg buprenorphine (Temgesic), minimum of 30 minutes prior to the surgery, to alleviate the operative and postoperative pain unrelated to neuropathy. Prior to spinal nerve ligation (SNL) procedure, the rats were anesthetized with isoflurane in 70% N2O and 30% O2; with a flow rate of 300 ml/min. Anesthesia was inducted in a chamber with 5% isoflurane for 2-3 min, and maintained through a snout mask with 1-2% isoflurane thereafter. A homeothermic blanket system was used for the rectal temperature to be monitored and maintained at 37.0° C.±1.5° C. during the operation.
A dorsal incision extending from L3 to S2 was performed to the medial dorsal area of the rat using aseptic technique. The L6/S1 posterior interarticular process was exposed using a combination of blunt and sharp dissection. The L6 transverse process in the spinal column was visualized and partially removed without manipulating the nerves, followed by exposing the L4 and L5 spinal nerves distal to their emergence from the intervertebral foramina.
The L5 nerve was ligated tightly with 6-0 silk suture. The L6 nerve was then located caudal and medial to the sacroiliac junction and tightly ligated with 6-0 silk suture, similarly to L5. Both ligatures were performed as double knots.
Tactile Allodynia Test (evF) and Pre-Handling and Baseline evF. In this study, mechanical sensitivity to touch stimuli was defined at four timepoints by using electronic von Frey (evF) device along with the attached analysis software (Somedic®, Sweden).
To perform the evF test, the rats were placed in individual von Frey test chambers standing on an elevated steel mesh. The rats were then allowed to adapt in the chambers, and the test per se was emerged after they have settled down followed by investigating the chamber and grooming (approximately 15 min). Test […] an animals were grooming, urinating, defecating or sleeping. Further description of test procedure is provided hereinbelow.
Conducting evF Test. Mechanical allodynia were assessed by evF test prior to SNL surgery (baseline), to define the individual sensitivity levels of the study animals. Next, the evF was performed on D 7 post-SNL, to assess the hypersensitivity evoked by the SNL surgery, and to provide pre-dosing sensitivity values for comparing. On D 8, the animals were subjected to the test at 2 h post-dosing (PD), at 4 h PD and at 8 h PD. Subsequently, the test was performed at 24 h PD, i.e. on D 9. On D 9, Group 2 received Pregabalin (i.p) at 2 h prior to testing.
The evF apparatus was used according to the manufacturer's instructions. Briefly, upon each measurement, the force is applied to mid-plantar surface of the hind paw in a linearly increasing rate.
The used evF probe diameter was 1 mm, and the chosen ascent rate of the force 10 g/s. The linearity of force application was monitored in real time. The applied force (in grams) causing paw withdrawal was recorded by the apparatus as the result for the trial.
Altogether, 5 repeated measurements were applied to each hind paw at each time-point leaving a minimum of 3-min interval between the repeats. Medians of the 5 measurement repeats were determined from each paw at any given time point. Both ipsi- and contralateral paws were also tested on each test day.

Compound: CC(C)C[C@H](CN)CC(=O)O [Pregabalin]
- analgesic or sedative effect in the kinematic data [1]: no analgesic or sedative effect
- overall gait score pattern over time, in words [2]: increasing score until 9 h PD timepoint
- Mean Diff, evF AUC ([3]; 5 mg/kg subset, labelled group vs. CBD + THC + CBC 5:5:1 mg/kg): 13.8 and 14
- Mean Diff, evF AUC ([3]; 5 mg/kg subset, labelled group vs. Vehicle): 29.8 and 30
- Mean (Mean 1/Mean 2), electronic von Frey Area Under the Curve (AUC) ([3]; Table 2B, 5 mg/kg subset, AUC of % of baseline PWT, pre-dosing to 24 h post-dosing, dose as in label, cannabinoids p.o. D8, Pregabalin 50 mg/kg i.p.): 271
- Mean (Mean 1/Mean 2), electronic von Frey AUC ([3]; Table 3, 10 mg/kg subset, AUC of % of baseline PWT, pre-dosing to 24 h post-dosing, dose as in label, cannabinoids p.o. D8, Pregabalin 50 mg/kg i.p.): 270.8
- Mean Diff, evF AUC ([3]; Table 3, labelled group vs. CBD + THC 10 mg/kg): −63.2
- Mean Diff, evF AUC ([3]; Table 3, labelled group vs. CBD + THC 10 mg/kg + CBC 2 mg/kg): −49.2
- Mean Diff, evF AUC ([3]; Table 3, labelled group vs. Vehicle): 29.8
- Mean Diff, evF AUC ([3]; vs. Vehicle, separate 'Tukey's multiple comparison test' block at foot of Tables 2A/2B): 29.8 and 30

Reference: patent US20210212984A1, “FORMULATION FOR PAIN MANAGEMENT” (Zyus Life Sciences Inc., priority 2019, published 2021)
